Read-outs that look alike come from different tables or passages of the source.
Legend:
T. cruzi TR [1] = biological target: T1, T. cruzi TR (Trypanosoma cruzi, UniProt P28593); experiment: biochemical
T1 construct: made in house
Procedure: (§1) The compounds used in the enzymatic inhibitory testing and the in silico screening were available as stock solutions in DMSO or in solid from a compound library maintained at MSD. All IC50 determinations were performed starting from solid material. Recombinant T. cruzi TR (CL strain) was prepared using a published expression system. TS2 was prepared enzymatically as described previously. For antiparasitic studies, culture-adapted bloodstream T. brucei parasites of cell line 449 were used. These cells are descendants of strain Lister 427 stably transfected with the gene for the tetracycline repressor.
The kinetic analysis of TR was performed in 384-well plates (Greiner Bio-One GmbH, Frickenhausen, Germany). The reaction mixture (50 μl) contained 5 mU/ml TR, 40 mM Hepes, pH 7.5, 1 mM EDTA, 300 μM NADPH (Sigma-Aldrich), 0.1 mg/ml BSA, and 0.01% Pluronic (BASF). […] In a volume of 30 μl, the assay components and the inhibitor were pre-incubated for 30 minutes and the reaction started by adding 20 μl of 375 μM TS2 resulting in final concentrations of 150 μM TS2 and 2% DMSO. The absorption decrease at 340 nm was measured by start and end point determination resulting in a delta of the optical density (delta A) for 30 min. All experiments were performed at room temperature. The TR concentration was kept constant at 5 mU/ml for all types of experiments. Therefore, after an initial calculation of the turnover number (kcat), only delta A values under identical conditions were compared. Initial screening was performed twice in two independent experiments.
Eleven compound concentrations were used ranging from 100–0.01 μM or 200–0.004 μM. The compounds were freshly dissolved in DMSO. All measurements were performed twice in three independent series. Enzyme activities were plotted versus increasing inhibitor concentrations. IC50 values were calculated using the four-parameter equation model 205 and the option “unlock” from the XLfit add-in (IDBS, Guildford, United Kingdom) in Excel (Microsoft Corporation, Redmond, WA).
A robust NADPH-linked photometric assay was chosen that firstly had to be adapted to the high throughput screening format. The assay volume was reduced from the 1 ml cuvette format to 50 μl total volume in 384 well plates. […] In order to stabilize the enzyme and to prevent adhesion and reduce surface tension as well as the formation of droplets in the small wells, 0.1 mg/ml BSA and 0.01% detergent (Pluronic) were added to the reaction mixture.

T. cruzi TR [2] = biological target: T1, T. cruzi TR; experiment: Ki determination and inhibition type on TR; assay type: biochemical; conditions: for Ki (Fig 7, uncompetitive mode of inhibition assumed): mean of two independent experiments, no unit printed in the figure, in µM; for binding mode (inhibition type): SigmaPlot Enzyme Kinetics Module
Procedure: The kinetic analysis of TR was performed in 384-well plates (Greiner Bio-One GmbH, Frickenhausen, Germany). The reaction mixture (50 μl) contained 5 mU/ml TR, 40 mM Hepes, pH 7.5, 1 mM EDTA, 300 μM NADPH (Sigma-Aldrich), 0.1 mg/ml BSA, and 0.01% Pluronic (BASF). The detergent was used to prevent the formation of droplets during pipetting and had no negative effects on the assay kinetics. In a volume of 30 μl, the assay components and the inhibitor were pre-incubated for 30 minutes and the reaction started by adding 20 μl of 375 μM TS2 resulting in final concentrations of 150 μM TS2 and 2% DMSO. The absorption decrease at 340 nm was measured by start and end point determination resulting in a delta of the optical density (delta A) for 30 min. All experiments were performed at room temperature. The TR concentration was kept constant at 5 mU/ml for all types of experiments. Therefore, after an initial calculation of the turnover number (kcat), only delta A values under identical conditions were compared. Initial screening was performed twice in two independent experiments.
Measurements were performed at 60, 80, 120, and 200 μM TS2 and five inhibitor concentrations resulting in 20 different data points per inhibitor. […] SigmaPlot 10 (Systat Software, Inc., San Jose, USA) with the Enzyme Kinetics Module was used to evaluate the inhibition type and Ki values. This software automatically estimates the initial parameters for different fit models, and uses the Marquardt-Levenberg algorithm to determine the parameter values. A detailed statistical report as well as a data report is generated to compare multiple models and graphs. Based on these statistics, the appropriate binding model can be selected. Graphs are created based on the models and the calculated parameter values instead of fitting each individual inhibitor concentration curve.

[3] = test system: bloodstream T. brucei (strain 449); experiment: Cell culture activity determination by counting living cells; assay type: cell-based; conditions: for EC50: Trypanosoma brucei, read-out: EC50, inhibition of parasite proliferation (living cells counted)
Procedure: as §1
Compounds were dissolved in DMSO to 10 mM stock solutions and added to bloodstream T. brucei (strain 449) in concentrations of 100, 50, 5, 0.5, and 0.05 μM in 24-well plates. The final DMSO content in the cultures was 1, 0.5, 0.05, 0.005 and 0.0005%, respectively. The initial cell density was 2500 cells/ml. After 48 h and 72 h incubation at 37°C in HMI-9 medium, viable cells were counted in a Neubauer chamber. The assay was performed in triplicate. The parasite strain and the culture conditions are described in the literature.

T. cruzi TR [4] = biological target: T1, T. cruzi TR; experiment: Mode of inhibition study: reversibility of binding (Amicon filter wash-out, then standard TR assay); assay type: biochemical
Procedure: Therefore, Amicon Ultra 0.5 ml centrifugal filters with a cut-off of 10,000 MW (Millipore Corporation, Billerica, MA, USA) were washed with 400 μl TR assay buffer and centrifuged for 5 min at 12,500 rpm at room temperature. Remaining buffer was removed by placing the filter upside down into a microcentrifuge tube and centrifugation at 3,500 rpm for 2 min. […] The filter was centrifuged for 15 min at 12,500 rpm, washed three times with 400 μl buffer and centrifuged again. The retentate was collected by placing the filter upside down on a new tube and centrifugation at 3,500 rpm for 2 min. The recovered protein solutions were subjected to a standard TR assay.
A reaction mixture containing TR, inhibitor and NADPH was incubated for 30 minutes. […] Afterwards, the protein was separated from the low molecular mass components by centrifugation in an Amicon tube. Inhibitors with a reversible binding mode would be washed out, whereas irreversible binders remain bound to the protein. Finally, the recovered protein solution was subjected to a standard assay to determine the remaining activity. Two controls were run to determine the maximum activity that could be recovered. One contained the protein assay mixture without inhibitor, while the second control was a mixture of TR and the reversible inhibitor chlorhexidine. […] Subsequently the inhibitor type and constants were determined.

TR = biological target: TR; parameters: method as in ref 39 (mepacrine), 42 (BG237), 43 (chlorhexidine); conditions: published data used for assay validation; ref 39 (mepacrine), 42 (BG237), 43 (chlorhexidine); cited from earlier work
[5] = parameters: method as in ref 47 = [47]; 47 PubChem (2014) Chlorhexidine (CID 9552079), sections “Biomedical Effects and Tixicity” and “Biomolecular Interactions and Pathways”. Available: http://pubchem.ncbi.nlm.nih.gov/summary/summary.cgi?c; conditions: in words; cited from earlier work
T. brucei = conditions: read-out: EC50, inhibition of proliferation of T. brucei; cited from earlier work
[6] = test system: bloodstream T. brucei wild-type cells; experiment: EC50 determination by ATPlite 1step assay, wild-type cells; assay type: cell-based; conditions: Trypanosoma brucei
Procedure: (§2) The ATPlite 1step assay system (PerkinElmer, Waltham, MA, USA) was used as described in Füller et al. to quantify T. brucei survival in medium-throughput dose-response series. Experiments were conducted in 96-well microplates (PerkinElmer, Waltham, MA, USA), each well containing 90 μl cell-culture and 10 μl compound. Initial cell densities were 2500 cells/ml. […] Unfortunately, compound 3 was no longer available for testing. […] For each compound, three identical plates were prepared, incubated at 37°C and analyzed after 24 h, 48 h, and 72 h, respectively. Samples from each cell-line left untreated were added to the plates prior to each measurement as additional controls. 50 μl of the ATPlite 1step solution (PerkinElmer, Waltham, MA, USA) were added to each well and the relative luminescence was measured immediately using a VICTOR Multilabel Plate Reader (PerkinElmer, Waltham, MA, USA) at room temperature. The values obtained were plotted against the logarithmic compound concentrations. A dose-response curve was generated from which EC50-values were calculated using the program PRISM 5.0 (GraphPad Software, La Jolla, CA, USA).
(§3) The parasites were cultured in the presence of different concentrations of the compounds and after 48 h and 72 h living cells were counted. […] The assay is based on the emission of light caused by the reaction of ATP with D-luciferin in the presence of luciferase, which is proportional to the amount of ATP serving as a marker for cell viability. […] Unfortunately, the T. brucei strain allowing the down-regulation of TR which was generated more than a decade ago in the laboratory of Christine Clayton is not available anymore. Therefore, this tet-inducible overexpressing system leading to up to three fold higher TR levels had to be used instead. Wild-type cells treated with 1 μg/ml tetracyclin were included to exclude any effect of the antibiotic on parasite proliferation.

[7] = test system: T. brucei parasites transfected with pHD1700-TbTR (TR-Over-expressing cells); experiment: EC50 determination by ATPlite 1step assay, TR-over-expressing cells; assay type: cell-based; conditions: Trypanosoma brucei
Procedure: as §2, §3

[8] = 60-200 μM TS2, two independent experiments
[9] = 60-200 μM TS2, two independent experiments, read-out: Ki, assumed inhibitor type competitive
[10] = 60-200 μM TS2, two independent experiments, read-out: Ki, assumed inhibitor type noncompetitive
[11] = HTS format, Ki ± SD (n = 3), Table 1, read-out: Ki Measured

T1 sequence (P28593 whole entry): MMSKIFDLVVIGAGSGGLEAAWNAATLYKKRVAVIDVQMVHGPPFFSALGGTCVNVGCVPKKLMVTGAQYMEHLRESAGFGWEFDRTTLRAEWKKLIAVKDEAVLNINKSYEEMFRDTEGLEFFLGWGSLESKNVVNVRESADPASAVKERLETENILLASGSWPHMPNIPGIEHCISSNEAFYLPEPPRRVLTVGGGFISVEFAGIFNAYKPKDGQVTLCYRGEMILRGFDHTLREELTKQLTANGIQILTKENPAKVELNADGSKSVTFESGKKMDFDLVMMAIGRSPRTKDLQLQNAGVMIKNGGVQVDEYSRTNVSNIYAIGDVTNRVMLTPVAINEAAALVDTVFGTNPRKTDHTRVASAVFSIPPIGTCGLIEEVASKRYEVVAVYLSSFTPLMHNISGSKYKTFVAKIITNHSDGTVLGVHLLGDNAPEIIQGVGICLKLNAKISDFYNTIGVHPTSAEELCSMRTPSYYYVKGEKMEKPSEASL

Structure (SMILES) | IC50 (T. cruzi TR [1]) [nM] | Ki, assumed inhibitor type uncompetitive (T. cruzi TR [2]; [8]) [µM] | Ki (T. cruzi TR [2]; [9]) [nM] | Ki (T. cruzi TR [2]; [10]) [nM] | Ki (Fig 7, uncompetitive mode of inhibition assumed) (T. cruzi TR [2]) | EC50 [3] [µM] | other results
NS(=O)(=O)c1ccc(Nc2cc(Cl)c3nonc3c2[N+](=O)[O-])cc1 [Compound 4] | 480 ± 20 | 0.80 ± 0.10 | 190 ± 70 | 1110 ± 130 | 0.80 ± 0.10 | – | EC50, inhibition of parasite proliferation (living cells counted) ([3]; after 48 h and 72 h): not active
O=[N+]([O-])c1c(Cl)cc(Cl)c2nsnc12 [Compound 3] | 610 ± 90 | 0.64 ± 0.06 | 150 ± 90 | 910 ± 80 | 0.64 ± 0.06 | 5 to 50 | –
[H]/N=C(\N/C(=N/[H])NCCCCCCNC(=N)NC(=N)Nc1ccc(Cl)cc1)Nc1ccc(Cl)cc1 [Chlorhexidine, reference compound] | 26000 ± 2000 | – | – | – | – | 0.1 to 0.2 | Ki (T. cruzi TR [2]; [11]): 4000 ± 1000 nM; binding mode (inhibition type) (T. cruzi TR [2]): competitive binding mode; reversible or irreversible binding to the enzyme (T. cruzi TR [4]; 100 μM inhibitor, 300 μM NADPH, 30 min incubation, wash-out): reversible; TR activity recovered compared to the initial kinetics (T. cruzi TR [4]; after wash-out of the inhibitor): 70–80%; Ki (TR): 2 µM; permeability described in pharmacokinetic studies [5]: poor permeability
CC1CS(=O)(=O)CCN1/N=C/c1ccc([N+](=O)[O-])o1 (stereo not shown) [nifurtimox] | – | – | – | – | – | – | EC50 (T. brucei): 2500 nM
O=C(Nc1ccccc1)OCCSc1ccc([N+](=O)[O-])c2nonc12 [Compound 1] | 270 ± 10 | 0.23 ± 0.02 | 60 ± 30 | 330 ± 30 | 0.23 ± 0.02 | – | –
CCN(CC)CCCC(C)Nc1c2ccc(Cl)cc2nc2ccc(OC)cc12 (stereo not shown) [Mepacrine, reference compound] | > 200000 | – | – | – | – | – | Ki (T. cruzi TR [2]; [11]): 20000 ± 5000 nM; binding mode (inhibition type) (T. cruzi TR [2]): competitive binding mode; Ki (T. cruzi TR [2]; three independent experiments, fitted to the relevant binding model, read-out: measured Ki (Lineweaver-Burk plots, Fig 3)): 20700 ± 5470 nM; Ki (TR): 19 µM
O=[N+]([O-])c1c(Sc2ncnc3ccccc23)cc(Cl)c2nsnc12 [Compound 2] | 580 ± 90 | 0.88 ± 0.08 | 260 ± 120 | 1300 ± 120 | 0.88 ± 0.08 | 5 to 50 | EC50 ([6]; read-out: EC50 24 h, Wild-type cells, ATPlite, 24 h, mean ± SD of three series): 56.4 ± 2 µM; EC50 ([6]; read-out: EC50 48 h, Wild-type cells, ATPlite, 48 h, mean ± SD of three series): 33 ± 2.2 µM; EC50 ([6]; read-out: EC50 at 24 h (ATPlite), 24 h, cell type not given): 42 µM; EC50 ([6]; read-out: EC50 at 48 h (ATPlite), 48 h, cell type not given): 42 µM; EC50 ([6]; 72 h, cell type not given, read-out: EC50 after 72 h (ATPlite)): 58 µM; EC50 ([6]; ATPlite, 72 h, series containing up to 150 μM compound = 1.5% DMSO, which affects cell viability, read-out: EC50 72 h, Wild-type cells): 55.9 ± 1.3 µM; EC50 ([7]; 24 h, read-out: EC50 24 h, TR-Over-expressing cells): 37.6 ± 1.9 µM; EC50 ([7]; 48 h, read-out: EC50 48 h, TR-Over-expressing cells): 46.9 ± 3.1 µM; EC50 ([7]; 72 h, read-out: EC50 72 h, TR-Over-expressing cells): 82 ± 1.6 µM

Reference: article PMC4456413, “Trypanothione Reductase: A Target Protein for a Combined In Vitro and In Silico Screening Approach” (PLoS Neglected Tropical Diseases, 2015)
